Data as given in ChEMBL document CHEMBL1147393, “Two new modified trichothecenes from Fusarium sporotrichioides” (J Nat Prod, 1993).

Assay: Cytotoxicity against syrian golden hamsters BHK21 cells
Type: cell-based, Mesocricetus auratus
Settings: hamster, bhk-21

Row | Structure (SMILES) | LC100
1 | CC1=C[C@H]2OC[C@]3(O)C[C@H](O)C[C@]3(C)[C@@]2(C)CC1 | 1000 ng/mL
2 | CC(=O)O[C@]12CO[C@@H]3C=C(C)CC[C@]3(C)[C@@]1(C)C[C@@H](O)C2 | 1000 ng/mL
